Experimental data: patent US7662781B2, “Immunopotentiating agent” (ECI, Inc., priority 2005, dated 2010)

B1: MIP-1α: molecule of about 70 amino acids belonging to the C—C chemokine family, ligand for CCR1 and CCR5 (protein, UniProt P10147 24-92, looked up)
C-C motif chemokine 3: SLAADTPTACCFSYTSRQIPQNFIADYFETSSQCSKPGVIFLTKRSRQVCADPSEEWVQKYVSDLELSA

What was measured:
[1] = system: Lewis lung carcinoma (3LL); experiment: Lung metastasis system of intravenously injected 3LL; assay type: in vivo, C57BL/6 mice; settings: 25 mg/mouse, twice a week
Protocol: By using a lung metastasis system of Lewis lung carcinoma (3LL), the tumor metastasis inhibition effect of eMIP was evaluated. Female C57BL/6 mice aged 7 weeks were employed. 10^6 3LL cells were injected into each animal via the tail vein. After 25 days, the lungs were taken out, weighed and fixed with Bouin' solution. Then, cancer tissues metastasized into the lungs were counted under a stereoscopic microscope. 30 minutes after the 3LL transplantation, eMIP was injected as the first administration followed by continuous administration once a week for 4 weeks. In the system wherein the administration was initiated 7 days after the 3LL transplantation, the effect of eMIP was examined. 5Fu employed as a control was administered twice a week.

[2] = system: dendritic cell precursors; settings: Yoneyama 2001; Zhang 2004; cited from earlier work

| Molecule | inhibition rate of metastasis into the lungs [1] | mobilization of dendritic cell precursors in the blood [2] |
| --- | --- | --- |
| O=c1[nH]cc(F)c(=O)[nH]1 [5Fu] | 78% | – |
| B1 | – | several ten-fold |
